Data published in article PMC8491704, “Pharmacokinetic study of Tangwang Mingmu granule for the management of diabetic retinopathy based on network pharmacology” (Pharmaceutical Biology, 2021).
Read-outs that look alike come from different tables or passages of the source.

Experiments:
[1] = Pharmacokinetic study in SD rats after oral administration of TWMM (UPLC-QQQ-MS of plasma); type: in vivo, Sprague-Dawley (SD) rats; conditions: oral TWMM 9.6 g/kg; for AUC(0-t): n = 6, read-out: AUC (0–36); for Cmax: n = 6, read-out: Cmax; for MRT last: n = 6, read-out: MRT (0–36); for MRT inf: n = 6, read-out: MRT (0–∞); for AUC(0-inf): read-out: areas under the concentration-time curve (AUC0–∞)
Experimental: Chromatographic separation was performed using an ACQUITY UPLC H-Class system equipped with a 1.8 μm HSS T3 analytical column (100 mm × 2.1 i.d., Waters Corporation, Milford, USA). […] ESI source was set to negative ionisation mode while the analysis was performed using multiple reaction monitorin. Ion spray voltage (3000 V), capillary temperature (450 °C), and the source parameters of the nine compounds are shown in Table 2.
The data obtained from the UPLC/Q-Orbitrap MS was imported into Xcalibur 4.0 software for analysis. Furthermore, the constituents acquired using GCMS-QP 2010 were profiled by comparison using the National Institute of Standards and Technology (NIST) database. The pharmacokinetic data were processed through MassLynx 4.1, and DAS 2.0 software was used to calculate the pharmacokinetic parameters according to the compartment model.
Six male SD rats (average weight: 220 ± 10 g) were acquired from Beijing Vital-River Laboratory Animal Technology Co., Ltd. All rats were acclimatized to an environmentally controlled laboratory for a week. Following this period, the rats were exposed to fasting conditions for 12 h but were allowed free access to water before the experiment. The rats were orally administered TWMM at a dose of 9.6 g/kg. Blood samples (300 µL) were collected into heparinized centrifuge tubes from the fossa orbitalis at pre-dose and 0.03, 0.08, 0.17, 0.25, 0.5, 1, 2, 4, 8, 12, 24, and 36 h intervals. The samples were immediately centrifuged at 6000 g for 10 min at 4 °C and the supernatants were transferred to clean centrifuge tubes.
Each 100 µL plasma sample was mixed with 20 µL of methanol, 20 µL of IS (5 µg/mL), and 600 µL acetonitrile. The mixtures were centrifuged at 15,000 g for 10 min at 4 °C after being vortexed for 3 min. The obtained supernatants were transferred to clean 1.5 mL centrifuge tubes, followed by evaporation under a milt nitrogen stream. Next, the obtained residues were individually redissolved in 100 µL of methanol and centrifuged at 15,000 g for 10 min at 4 °C after vortexed for 3 min. Lastly, 10 µL of individual supernatant was injected for analysis.

[2] = Stability of QC samples of 8 compounds in rat plasma (25 °C 4 h, autosampler 12 h, three freeze-thaw cycles, −80 °C 7 d); type: in vitro ADME; conditions: rat, plasma; for Stability in rat plasma, Long term (7 day, –80 °C), Measured: 168 h
Experimental: The calibration curves were assessed at eight concentration levels using the correlation coefficient (r). The lower limit of quantification (LLOQ) could fulfil the analytical requirements and achieved reliable accuracy and precision with a signal-to-noise ratio (S/N) ≥ 10. To determine intra- and inter-day precision and accuracy, six replicate quality control (QC) samples at three concentrations were prepared. Inter- and intra-day precision was evaluated by determining relative standard deviation (RSD) values, while accuracy was expressed in terms of the relative error (RE). The extraction recoveries were determined using three concentration levels and calculated by comparing the peak area of extracted samples with post-extracted spiked samples. Subsequently, matrix effects were assessed using the peak area of post-extracted spiked samples contrasted with QC samples at the three concentration levels. The stability test of QC samples at the three concentration levels was as follows: storage at 25 °C for 4 h, storage in an autosampler for 12 h, freeze-thaw cycle for three times, and storage at −80 °C for 7 d.
The stability tests were carried out under three freeze-thaw cycles, at 25 °C for 4 h, in an autosampler for 12 h, and at −80 °C for 7 d.

HUVEC cells = experiment: Assay of intracellular reactive oxygen species (ROS), DCFH-DA, high glucose; type: cell-based, human; conditions: luteolin 20, 10, 5 µM or formononetin 40, 20, 10 µM for 2 h, then high glucose 24 h
Experimental: The generation of ROS was detected using dichloro-dihydro-fluorescein diacetate (DCFH-DA, reactive oxygen species assay kit, Solarbio, Beijing) as per manufacturer instructions. In this study, we seeded HUVEC cells in a 96-well plate at 7 × 10^3 per well. […] DCF fluorescence was assessed at F488/525 nm by using a bioassay multi-detection fluorescent plate reader (Tecan Spark, Switzerland).

[3] = design: method as in Guan et al. 2014; Cheruvu et al. 2018; Jia et al. 2020; conditions: in different herbal extracts and prescriptions; ref Guan et al. 2014; Cheruvu et al. 2018; Jia et al. 2020; cited from earlier work
[4] = male, Sprague-Dawley, rat, n = 6
[5] = male, Sprague-Dawley, rat, po, 9.6 g/kg, n = 6, read-out: Tmax

C[C@@H]1O[C@@H](O[C@@H]2[C@@H](O)[C@H](OCCc3ccc(O)c(O)c3)O[C@H](CO)[C@H]2OC(=O)/C=C/c2ccc(O)c(O)c2)[C@H](O)[C@H](O)[C@H]1O [Verbascoside]
half-life [1, 4]: 2.08 ± 0.38 h | AUC(0-t) ([1]; male, Sprague-Dawley, rat): 175 ± 40.8 ng·h/mL | Cmax ([1]; male, Sprague-Dawley, rat): 45.5 ± 21.2 ng/mL | MRT last ([1]; male, Sprague-Dawley, rat): 8.9 ± 3.44 h | MRT inf ([1]; male, Sprague-Dawley, rat): 8.91 ± 3.44 h | AUC(0-inf) ([1]; male, Sprague-Dawley, rat): 175 ± 40.8 ng·h/mL | Tmax ([1]; n = 6): 0.25 ± 0.14 h | Tmax ([1]; n = 6, listed as verbascoside): ≤ 1 h | t1/2 ([1]; n = 6, listed as verbascoside): rapid elimination | Stability in rat plasma, Three freeze/thaw cycles, Measured ([2]; 2 ng/mL): 2.0 ± 0.1 ng/mL | Stability in rat plasma, Three freeze/thaw cycles, Measured ([2]; 20 ng/mL): 21.8 ± 1.9 ng/mL | Stability in rat plasma, Three freeze/thaw cycles, Measured ([2]; 400 ng/mL): 416.4 ± 17.6 ng/mL | Stability in rat plasma, Room temperature (4 h, 25 °C), Measured ([2]; 2 ng/mL): 2.2 ± 0.1 ng/mL | Stability in rat plasma, Room temperature (4 h, 25 °C), Measured ([2]; 20 ng/mL): 19.6 ± 1.0 ng/mL | Stability in rat plasma, Room temperature (4 h, 25 °C), Measured ([2]; 400 ng/mL): 427.6 ± 13.8 ng/mL | Stability in rat plasma, Autosampler (12 h, 4 °C), Measured ([2]; 2 ng/mL): 2.1 ± 0.2 ng/mL | Stability in rat plasma, Autosampler (12 h, 4 °C), Measured ([2]; 20 ng/mL): 23.8 ± 1.8 ng/mL | Stability in rat plasma, Autosampler (12 h, 4 °C), Measured ([2]; 400 ng/mL): 402.4 ± 19.1 ng/mL | Stability in rat plasma, Long term (7 day, –80 °C), Measured ([2]; 2 ng/mL): 1.9 ± 0.2 ng/mL | Stability in rat plasma, Long term (7 day, –80 °C), Measured ([2]; 20 ng/mL): 21.3 ± 1.8 ng/mL | Stability in rat plasma, Long term (7 day, –80 °C), Measured ([2]; 400 ng/mL): 430.0 ± 6.2 ng/mL

C/C=C1/[C@H](O[C@@H]2O[C@H](CO)[C@@H](O)[C@H](O)[C@H]2O)OC=C(C(=O)OC)[C@H]1CC(=O)OCCc1ccc(O)c(O)c1 [Oleuropein]
half-life [1, 4]: 3.36 h | AUC(0-t) ([1]; male, Sprague-Dawley, rat): 1.03 ± 0.75 ng·h/mL | Cmax ([1]; male, Sprague-Dawley, rat): 0.9 ± 0.82 ng/mL | MRT last ([1]; male, Sprague-Dawley, rat): 1.53 ± 1.25 h | MRT inf ([1]; male, Sprague-Dawley, rat): 1.54 ± 1.25 h | AUC(0-inf) ([1]; male, Sprague-Dawley, rat): 1.03 ± 0.75 ng·h/mL | Tmax [1, 5]: 1.37 ± 1.6 h | t1/2 ([1]; n = 6): rapid elimination | Stability in rat plasma, Three freeze/thaw cycles, Measured ([2]; 0.5 ng/mL): 0.5 ± 0.1 ng/mL | Stability in rat plasma, Three freeze/thaw cycles, Measured ([2]; 5 ng/mL): 5.1 ± 0.2 ng/mL | Stability in rat plasma, Three freeze/thaw cycles, Measured ([2]; 100 ng/mL): 103.6 ± 9.3 ng/mL | Stability in rat plasma, Room temperature (4 h, 25 °C), Measured ([2]; 0.5 ng/mL): 0.5 ± 0.1 ng/mL | Stability in rat plasma, Room temperature (4 h, 25 °C), Measured ([2]; 5 ng/mL): 4.3 ± 0.5 ng/mL | Stability in rat plasma, Room temperature (4 h, 25 °C), Measured ([2]; 100 ng/mL): 108.6 ± 7.8 ng/mL | Stability in rat plasma, Autosampler (12 h, 4 °C), Measured ([2]; 0.5 ng/mL): 0.4 ± 0.1 ng/mL | Stability in rat plasma, Autosampler (12 h, 4 °C), Measured ([2]; 5 ng/mL): 0.5 ± 0.0 ng/mL | Stability in rat plasma, Autosampler (12 h, 4 °C), Measured ([2]; 100 ng/mL): 93.4 ± 8.6 ng/mL | Stability in rat plasma, Long term (7 day, –80 °C), Measured ([2]; 0.5 ng/mL): 1.0 ± 0.0 ng/mL | Stability in rat plasma, Long term (7 day, –80 °C), Measured ([2]; 5 ng/mL): 4.9 ± 0.3 ng/mL | Stability in rat plasma, Long term (7 day, –80 °C), Measured ([2]; 100 ng/mL): 113.9 ± 9.9 ng/mL

O=c1cc(-c2ccc(O)c(O)c2)oc2cc(O)cc(O)c12 [Luteolin]
half-life [1, 4]: 11.1 ± 10.2 h | AUC(0-t) ([1]; male, Sprague-Dawley, rat): 38.5 ± 7.61 ng·h/mL | Cmax ([1]; male, Sprague-Dawley, rat): 3.27 ± 0.78 ng/mL | MRT last ([1]; male, Sprague-Dawley, rat): 11.4 ± 1.23 h | MRT inf ([1]; male, Sprague-Dawley, rat): 18.2 ± 9.14 h | AUC(0-inf) ([1]; male, Sprague-Dawley, rat): 44 ± 4.19 ng·h/mL | Tmax [1, 5]: 1.71 ± 1.79 h | Stability in rat plasma, Three freeze/thaw cycles, Measured ([2]; 1 ng/mL): 1.1 ± 0.1 ng/mL | Stability in rat plasma, Three freeze/thaw cycles, Measured ([2]; 10 ng/mL): 11.4 ± 0.8 ng/mL | Stability in rat plasma, Three freeze/thaw cycles, Measured ([2]; 200 ng/mL): 218.0 ± 9.9 ng/mL | Stability in rat plasma, Room temperature (4 h, 25 °C), Measured ([2]; 1 ng/mL): 1.2 ± 0.1 ng/mL | Stability in rat plasma, Room temperature (4 h, 25 °C), Measured ([2]; 10 ng/mL): 11.3 ± 0.3 ng/mL | Stability in rat plasma, Room temperature (4 h, 25 °C), Measured ([2]; 200 ng/mL): 217.9 ± 11.7 ng/mL | Stability in rat plasma, Autosampler (12 h, 4 °C), Measured ([2]; 1 ng/mL): 1.1 ± 0.1 ng/mL | Stability in rat plasma, Autosampler (12 h, 4 °C), Measured ([2]; 10 ng/mL): 10.0 ± 0.2 ng/mL | Stability in rat plasma, Autosampler (12 h, 4 °C), Measured ([2]; 200 ng/mL): 205.6 ± 0.9 ng/mL | Stability in rat plasma, Long term (7 day, –80 °C), Measured ([2]; 1 ng/mL): 1.0 ± 0.1 ng/mL | Stability in rat plasma, Long term (7 day, –80 °C), Measured ([2]; 10 ng/mL): 10.4 ± 0.6 ng/mL | Stability in rat plasma, Long term (7 day, –80 °C), Measured ([2]; 200 ng/mL): 221.9 ± 6.8 ng/mL | ROS generation induced by HG (HUVEC cells): could alleviate the symptom of DR | Tmax [3]: 0.50 to 2.83 h | t1/2 [3]: 3.63 to 12.10 h

COc1ccc(-c2coc3cc(O)ccc3c2=O)cc1 [Formononetin]
half-life [1, 4]: 11.7 ± 2.09 h | AUC(0-t) ([1]; male, Sprague-Dawley, rat): 40.8 ± 8.51 ng·h/mL | Cmax ([1]; male, Sprague-Dawley, rat): 6.17 ± 1.65 ng/mL | MRT last ([1]; male, Sprague-Dawley, rat): 10.7 ± 1.17 h | MRT inf ([1]; male, Sprague-Dawley, rat): 15.7 ± 1.9 h | AUC(0-inf) ([1]; male, Sprague-Dawley, rat): 46 ± 7.89 ng·h/mL | Tmax ([1]; n = 6): 0.46 ± 0.29 h | Tmax ([1]; n = 6, listed as formononetin): ≤ 1 h | Stability in rat plasma, Three freeze/thaw cycles, Measured ([2]; 1 ng/mL): 1.0 ± 0.1 ng/mL | Stability in rat plasma, Three freeze/thaw cycles, Measured ([2]; 10 ng/mL): 10.1 ± 1.0 ng/mL | Stability in rat plasma, Three freeze/thaw cycles, Measured ([2]; 200 ng/mL): 206.3 ± 21.0 ng/mL | Stability in rat plasma, Room temperature (4 h, 25 °C), Measured ([2]; 1 ng/mL): 1.1 ± 0.1 ng/mL | Stability in rat plasma, Room temperature (4 h, 25 °C), Measured ([2]; 10 ng/mL): 11.8 ± 0.2 ng/mL | Stability in rat plasma, Room temperature (4 h, 25 °C), Measured ([2]; 200 ng/mL): 220.6 ± 3.5 ng/mL | Stability in rat plasma, Autosampler (12 h, 4 °C), Measured ([2]; 1 ng/mL): 1.2 ± 0.1 ng/mL | Stability in rat plasma, Autosampler (12 h, 4 °C), Measured ([2]; 10 ng/mL): 10.1 ± 0.2 ng/mL | Stability in rat plasma, Autosampler (12 h, 4 °C), Measured ([2]; 200 ng/mL): 222.6 ± 3.6 ng/mL | Stability in rat plasma, Long term (7 day, –80 °C), Measured ([2]; 1 ng/mL): 1.1 ± 0.1 ng/mL | Stability in rat plasma, Long term (7 day, –80 °C), Measured ([2]; 10 ng/mL): 10.2 ± 0.2 ng/mL | Stability in rat plasma, Long term (7 day, –80 °C), Measured ([2]; 200 ng/mL): 216.0 ± 4.3 ng/mL | ROS generation induced by HG (HUVEC cells): could alleviate the symptom of DR
